# Test results published in patent publication US12311014B1, “Composition and use thereof for the treatment of equine gastric ulcer syndrome” (priority 2024, dated 2025).
# Key:
# [1] = tested on: pigs at weaning (scour/diarrhea); assay: Pig trial 2: 240 weaned pigs, weight, health and cleanliness scores; format: in vivo
# Method: A further study involving 240 pigs was carried out with a higher dose of lactoperoxidase and potassium iodide. The pigs were weighed and allocated to the trail at weaning (approximately 28 days of age).
# The groups were homogenized with respect to group total weight and gender profile, and each group was divided into pens, with 5 pigs per pen. […] The pigs were weighed individually at the start of the study on day 7 and on day 14. Pigs were assessed each morning for general health, faeces was examined—to check for scour/diarrhea, and pigs per give a cleanliness score
# [2] = tested on: piglets weaned at 28 days (control of E. coli infection); assay: Pig trial 1: weight gain and feed intake of weaned piglets; format: in vivo, pigs
# Method: A trial was conducted to determine the potential impact of the compositions of the invention for controlling E. coli infection and improving animal health.
# Piglets were weaned at 28 days of age with an average weight of 8.6±0.98 kg. At weaning (i.e. no longer suckling), litters were homogenized to a maximum of 14 pigs and assigned to either a control group (no additional feed component), to a first test group to which the composition of the invention was administered, and to a second test group to which zinc oxide was administered. Pigs were fed starter diets up until day 14 of the trial when the trial completed.
# Group weight and feed intake was recorded at day 0, 7 and 14 of the experiment.
# The composition of the invention comprised: 10 mg LPO and 8 mg KI and excipients. The composition was formulated as a powder. The composition was administered once daily with feed for 14 days. […] Zinc oxide was administered to the second test group at a concentration of 3000 ppm i.e. 3 g/kg of feed.
# mammalian cells = conditions: cell culture studies; cited from earlier work
# [3] = Lactoperoxidase ABTS activity (UV-vis); format: biochemical; conditions: 1000 units = amount of enzyme that oxidises 1 mmol of ABTS in 5 minutes at pH 6.0 and 35° C.
# Method: Lactoperoxidase was isolated from bovine milk. The lactoperoxidase activity (U/mg) was greater than 1000 units ABTS activity (determined using UV-vis). 1000 units ABTS activity (U): amount of enzyme that oxidises 1 mmol of ABTS in 5 minutes at pH 6.0 and 35° C. ABTS: 2,2′-azinobis-(3-ethyl benzthiazoline-6-sulphonic acid).
compound,measurement,setting,value
[O]=[Zn] [zinc oxide],pig weight at the end of the 14 days,"[1]; PC: 3100 ppm ZnO diet, test: 20 mg LPO and 20 mg KI per day, NC diet approximately 0.8 kg less than PC",heaviest
same,cleanliness score,"[1]; score 1 (clean) to 4 (heavily contaminated with faecal material), 14 day study",lowest cleanliness score
same,Average body weight,[2]; Day 0 (baseline at weaning),8.5 kg
same,Average body weight,"[2]; Day 7, Test 1: 10 mg LPO and 8 mg KI daily, Test 2: zinc oxide 3000 ppm in feed",10.1 kg
same,Average body weight,"[2]; Day 14, Test 1: 10 mg LPO and 8 mg KI daily, Test 2: zinc oxide 3000 ppm in feed",13.7 kg
same,Average daily gain day 14,"[2]; piglets weaned at 28 days, Test 1: 10 mg LPO and 8 mg KI powder once daily with feed for 14 days, Test 2: zinc oxide 3000 ppm in feed",369 g/day
same,Average daily feed intake day 14,"[2]; piglets weaned at 28 days, Test 1: 10 mg LPO and 8 mg KI powder once daily, Test 2: zinc oxide 3000 ppm in feed",455 g/day
OO [hydrogen peroxide],cytotoxic concentrations,mammalian cells,0.05 to 0.58 mmol/L
Lactoperoxidase,lactoperoxidase activity (units ABTS activity),[3],greater than 1000 U/mg
